From ChEMBL document CHEMBL1157692, “Probing the carbohydrate recognition domain of E-selectin: the importance of the acid orientation in sLex mimetics” (Bioorg Med Chem, 2010)
Calls of active or inactive are those of the source. The rule behind the calls is not given here.

molecular target: T1, E-selectin (Homo sapiens) (UniProt P16581); test: Ratio of compound IC50 to sialyl Lewis X IC50 for E-selectin by ELISA
T1 sequence (whole entry): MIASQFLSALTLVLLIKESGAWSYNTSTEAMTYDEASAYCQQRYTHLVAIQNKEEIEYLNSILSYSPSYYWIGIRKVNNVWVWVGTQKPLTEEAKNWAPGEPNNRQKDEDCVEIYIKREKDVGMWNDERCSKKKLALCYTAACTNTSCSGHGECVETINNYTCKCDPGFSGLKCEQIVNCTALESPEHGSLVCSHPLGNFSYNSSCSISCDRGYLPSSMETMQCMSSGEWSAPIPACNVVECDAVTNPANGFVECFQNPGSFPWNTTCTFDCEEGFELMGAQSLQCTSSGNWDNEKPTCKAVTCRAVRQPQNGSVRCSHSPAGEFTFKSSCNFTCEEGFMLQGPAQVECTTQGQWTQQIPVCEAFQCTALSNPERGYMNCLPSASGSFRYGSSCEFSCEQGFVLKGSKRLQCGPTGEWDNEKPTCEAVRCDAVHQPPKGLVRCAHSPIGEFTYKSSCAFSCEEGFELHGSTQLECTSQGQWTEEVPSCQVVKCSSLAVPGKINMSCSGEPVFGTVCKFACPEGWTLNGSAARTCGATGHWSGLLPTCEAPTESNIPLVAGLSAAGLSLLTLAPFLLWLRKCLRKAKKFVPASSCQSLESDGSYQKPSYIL

In order of rising Ratio IC50:
1. C[C@@H]1O[C@@H](O[C@@H]2CCCC[C@H]2O[C@@H]2O[C@H](CO)[C@H](O)[C@H](O[C@@H](CC3CCCCC3)C(=O)O)[C@H]2O)[C@@H](O)[C@H](O)[C@@H]1O  0.08
2. C[C@@H]1O[C@@H](O[C@@H]2CCCC[C@H]2O[C@@H]2O[C@H](CO)[C@H](O)[C@H](O[C@@H](CN=[N+]=[N-])C(=O)O)[C@H]2O)[C@@H](O)[C@H](O)[C@@H]1O  0.29
3. C[C@@H]1O[C@@H](O[C@@H]2CCCC[C@H]2O[C@@H]2O[C@H](CO)[C@H](O)[C@H](O[C@@H](Cn3ccnn3)C(=O)O)[C@H]2O)[C@@H](O)[C@H](O)[C@@H]1O  0.48
4. C[C@@H]1O[C@@H](O[C@@H]2CCCC[C@H]2O[C@@H]2O[C@H](CO)[C@H](O)[C@H](O[C@@H](Cn3cc(-c4ccsc4)nn3)C(=O)O)[C@H]2O)[C@@H](O)[C@H](O)[C@@H]1O  0.88
5. C[C@@H]1O[C@@H](O[C@@H]2CCCC[C@H]2O[C@@H]2O[C@H](CO)[C@H](O)[C@H](O[C@@H](Cn3cc(Cc4ccccc4)nn3)C(=O)O)[C@H]2O)[C@@H](O)[C@H](O)[C@@H]1O  1.03
6. C[C@@H]1O[C@@H](O[C@@H]2CCCC[C@H]2O[C@@H]2O[C@H](CO)[C@H](O)[C@H](O[C@@H](Cn3cc(Cn4nnc5ccccc54)nn3)C(=O)O)[C@H]2O)[C@@H](O)[C@H](O)[C@@H]1O  1.18
7. C[C@@H]1O[C@@H](O[C@@H]2CCCC[C@H]2O[C@@H]2O[C@H](CO)[C@H](O)[C@H](O[C@@H](Cn3cc(Cn4nnc5c4CCCC5)nn3)C(=O)O)[C@H]2O)[C@@H](O)[C@H](O)[C@@H]1O  1.22
8. C[C@@H]1O[C@@H](O[C@@H]2CCCC[C@H]2O[C@@H]2O[C@H](CO)[C@H](O)[C@H](O[C@@H](Cn3cc(-c4cccnc4)nn3)C(=O)O)[C@H]2O)[C@@H](O)[C@H](O)[C@@H]1O  3.13

molecular target: T1, E-selectin (Homo sapiens); test: Ratio of sialyl Lewis X IC50 to compound IC50 for E-selectin by ELISA

`C[C@@H]1O[C@@H](O[C@@H]2CCCC[C@H]2O[C@@H]2O[C@H](CO)[C@H](O)[C@H](O[C@@H](CC3CCCCC3)C(=O)O)[C@H]2O)[C@@H](O)[C@H](O)[C@@H]1O` was tested, and the Ratio IC50 was 12.

molecular target: T1, E-selectin (Homo sapiens); test: Inhibition of CGP-69669A binding to E-selectin by ELISA

`C[C@@H]1O[C@@H](O[C@@H]2CCCC[C@H]2O[C@@H]2O[C@H](CO)[C@H](O)[C@H](O[C@@H](Cn3cc(-c4cccc(C(F)(F)F)c4)nn3)C(=O)O)[C@H]2O)[C@@H](O)[C@H](O)[C@@H]1O` was tested, and the inhibition was “inactive”.
